Measurements from patent US20020169205A1, “Implantation rates after in vitro fertilization, and treatment of infertility and early pregnancy loss with a nitric oxide donor or substrate alone or in combination with progesterone, and a method for contraception with nitric oxide inhibitors in combination with antiprogestins or other agents” (priority 1998, published 2002).

Tests used:
[1] = test system: implantation in rats; test: Effects of L-NAME on implantation in pregnant rats (FIG. 1 and FIG. 2); type: in vivo
Procedure: The animals were treated with 25 and 50 mg/animal/day L-NAME administered via continuous s.c. infusion from day 1 post coitum (p.c.) until day 7 p.c The autopsy was performed on day 12 p.c.
The animals were treated with 25 and 50 mg/animal/day L-NAME administered via continuous s.c. infusion on day 5-7 (p.c.). The autopsy was performed on either day 9 p.c. or day 12 p.c.
In the experiments whose results are shown in FIG. 1, pregnant rats (n=6/group) were treated with 25 and 50 mg/animal/day L-NAME from day 1 p.c. until day 7 p.c., i.e. during the period of pre-implantation and early implantation (in rats implantation takes place on day 5 p.c. ). The control animals were treated with the vehicle. During autopsy (days 9 and 12 p.c.) the implantation sites were assessed macroscopically, their diameter was measured, and the weights of isolated implantation sites (embryonic and placental tissues) were recorded. FIG. 2 presents results from a second study In pregnant rats in which L-NAME (25 and 50 mg/anilal/day) treatment was performed on days 5-7 p.c., i.e. shortly after nidation had taken place. The autopsy was performed on day 12 p.c. Implantation showing haemorrhagic changes were defined as pathological implantation sites.

[2] = test system: uterine strips from rats at mid to near term gestation; details: cited from earlier work
[3] = test system: uterine blood flow; details: low dose aspirin, patients with impeded blood flow; cited from earlier work
[4] = test system: implantation; test: Other studies: L-NAME effects on implantation combined with low-dose onapristone; type: in vivo; details: onapristone low-dose 0.1-0.3 mg/animal/day together with L-NAME
[5] = 25 and 50 mg/animal/day s.c. infusion, autopsy day 9 or 12 p.c.

## COC(=O)[C@@H](N)CCCNC(=N)N[N+](=O)[O-] [L-NAME, NG-nitro-L-arginine methyl ester]
[1]; 25 and 50 mg/animal/day continuous s.c. infusion, day 1-7 p.c. or days 5-7 p.c.
  effect on implantation: profound effect on implantation
[1]; [5]
  size of the implantation sites: dose-dependent inhibition
  weight of the implantation sites: dose-dependent inhibition
[1]; 25 and 50 mg/animal/day s.c. infusion, haemorrhagic changes defined as pathological
  pathological changes in the implantation sites: induced pathological changes in the implantation sites (mainly haemorrhages)

## N=C(N)NCCC[C@H](N)C(=O)O [L-arginine]
[2]
  relaxation of spontaneous activity of uterine strips: rapid and substantial relaxation

## CC(=O)Oc1ccccc1C(=O)O [aspirin]
[3]
  effect on uterine blood flow: only marginal

## CN(C)c1ccc([C@H]2C[C@]3(C)[C@@H](CC[C@]3(O)CCCO)[C@@H]3CCC4=CC(=O)CCC4=C32)cc1 [onapristone]
[4]
  L-NAME-induced effects on implantation with added antiprogestin: enhanced
